# In patent publication US12685315B2, “Herbicidal combination” (UPL do Brasil Industria e Comercio de Insumos Agropecuarios …, priority 2019, dated 2026):
# Experiments:
# Format in all cases: in vivo
# Digitaria insularis = assay: Field trial of triple mixes of amicarbazone, post-emergence weed control; settings: dose g ai/ha: Amicarbazone 75, S-metolachlor 300, Atrazine 250, mix 75 + 300 + 250
# Description: (§1) Field trials were done to evaluate the efficacy and synergism of the triple mixes of amicarbazone with other herbicides for the control of weeds in pre and post-emergence application.
# (§2) The composition of the present invention was applied. This test was performed for species of weeds: Grasses namely BRADC=Brachiaria decumbens, CCHEC=Cenchrus echinatus, ELEIN=Eleusine indica, TRCIN=Digitaria insularis and Broadleaves namely IAQGR=Ipomoea grandifolia, EPHHL=Euphorbia heterophylla, COMBE=Commelina benghalensis. Data were collected at various period after application of the composition to the soil and calculated.
# [1] = test system: Cenchrus echinatus (CCHEC); assay: Field trial of triple mixes of amicarbazone, pre and post-emergence weed control
# Description: as §1, §2
# [2] = test system: Brachiaria decumbens (BRADC); assay: as above
# Description: as §1, §2
# Eleusine indica = assay: as above
# Description: as §1, §2
# [3] = test system: Ipomoea grandifolia (IAQGR); assay: Field trial of triple mixes of amicarbazone, pre-emergence weed control
# Description: as §1, §2
# Commelina benghalensis = assay: as above; settings: dose g ai/ha: Amicarbazone 75, Mesotrione 38, Ametryn 250, mix AMC + AME + MST 75 + 38 + 250
# Description: as §1, §2
# Euphorbia heterophylla = assay: as above; settings: dose g ai/ha: Amicarbazone 250, Sulfentrazone 150, Diuron 250, mix 250 + 150 + 250
# Description: as §1, §2
structure (smiles),measurement,setting,value
CC(C)c1nn(C(=O)NC(C)(C)C)c(=O)n1N [Amicarbazone],% Control,"Digitaria insularis; Table 9, 21 DAA",7.5%
same,% Control,"Digitaria insularis; Table 9, 28 DAA",1.3%
same,% Control,"Digitaria insularis; Table 9, 35 DAA",0.5%
same,% Control,"[1]; Table 2, Post-Emergence, 7 DAA, dose g ai/ha: Amicarbazone 75, Isoxaflutole 15, Atrazine 250, mix 75 + 15 + 250",33.8%
same,% Control,"[1]; Table 2, Post-Emergence, 28 DAA, dose g ai/ha: Amicarbazone 75, Isoxaflutole 15, Atrazine 250, mix 75 + 15 + 250",40.0%
same,% Control,"[1]; Table 2, Post-Emergence, 35 DAA, dose g ai/ha: Amicarbazone 75, Isoxaflutole 15, Atrazine 250, mix 75 + 15 + 250",36.3%
same,% Control,"[1]; Table 6, Post-Emergence, 21 DAA, dose g ai/ha: Amicarbazone 250, Sulfentrazone 150, Diuron 250, mix 250 + 150 + 250",0.0%
same,% Control,"[1]; Table 6, Post-Emergence, 28 DAA, dose g ai/ha: Amicarbazone 250, Sulfentrazone 150, Diuron 250, mix 250 + 150 + 250",0.0%
same,% Control,"[1]; Table 6, Post-Emergence, 35 DAA, dose g ai/ha: Amicarbazone 250, Sulfentrazone 150, Diuron 250, mix 250 + 150 + 250",0.0%
same,% Control,"[1]; Table 6, Pre-Emergence, 21 DAA, dose g ai/ha: Amicarbazone 250, Sulfentrazone 150, Diuron 250, mix 250 + 150 + 250",7.5%
same,% Control,"[1]; Table 6, Pre-Emergence, 28 DAA, dose g ai/ha: Amicarbazone 250, Sulfentrazone 150, Diuron 250, mix 250 + 150 + 250",5.0%
same,% Control,"[1]; Table 6, Pre-Emergence, 35 DAA, dose g ai/ha: Amicarbazone 250, Sulfentrazone 150, Diuron 250, mix 250 + 150 + 250",3.3%
same,% Control,"[2]; Table 1, Post-Emergence, 7 DAA, dose g ai/ha: Amicarbazone 75, Isoxaflutole 15, Atrazine 250, mix 75 + 15 + 250",43.8%
same,% Control,"[2]; Table 1, Post-Emergence, 21 DAA, dose g ai/ha: Amicarbazone 75, Isoxaflutole 15, Atrazine 250, mix 75 + 15 + 250",38.8%
same,% Control,"[2]; Table 1, Post-Emergence, 28 DAA, dose g ai/ha: Amicarbazone 75, Isoxaflutole 15, Atrazine 250, mix 75 + 15 + 250",40.0%
same,% Control,"[2]; Table 1, Pre-Emergence, 7 DAA, dose g ai/ha: Amicarbazone 75, Isoxaflutole 15, Atrazine 250, mix 75 + 15 + 250",0.0%
same,% Control,"[2]; Table 1, Pre-Emergence, 21 DAA, dose g ai/ha: Amicarbazone 75, Isoxaflutole 15, Atrazine 250, mix 75 + 15 + 250",0.0%
same,% Control,"[2]; Table 1, Pre-Emergence, 28 DAA, dose g ai/ha: Amicarbazone 75, Isoxaflutole 15, Atrazine 250, mix 75 + 15 + 250",0.0%
same,% Control,"[2]; Table 5, Post-Emergence, 21 DAA, dose g ai/ha: Amicarbazone 250, Clomazone 250, Diuron 250, mix 250 + 250 + 250",25.0%
same,% Control,"[2]; Table 5, Post-Emergence, 28 DAA, dose g ai/ha: Amicarbazone 250, Clomazone 250, Diuron 250, mix 250 + 250 + 250",16.3%
same,% Control,"[2]; Table 5, Post-Emergence, 35 DAA, dose g ai/ha: Amicarbazone 250, Clomazone 250, Diuron 250, mix 250 + 250 + 250",13.8%
same,% Control,"[2]; Table 5, Pre-Emergence, 21 DAA, dose g ai/ha: Amicarbazone 250, Clomazone 250, Diuron 250, mix 250 + 250 + 250",63.8%
same,% Control,"[2]; Table 5, Pre-Emergence, 28 DAA, dose g ai/ha: Amicarbazone 250, Clomazone 250, Diuron 250, mix 250 + 250 + 250",50.0%
same,% Control,"[2]; Table 5, Pre-Emergence, 35 DAA, dose g ai/ha: Amicarbazone 250, Clomazone 250, Diuron 250, mix 250 + 250 + 250",46.3%
same,% Control,"Eleusine indica; Table 8, Post-Emergence, 14 DAA, dose g ai/ha: Amicarbazone 250, Sulfentrazone 150, Diuron 250, mix 250 + 150 + 250",13.8%
same,% Control,"Eleusine indica; Table 8, Post-Emergence, 21 DAA, dose g ai/ha: Amicarbazone 250, Sulfentrazone 150, Diuron 250, mix 250 + 150 + 250",16.3%
same,% Control,"Eleusine indica; Table 8, Post-Emergence, 28 DAA, dose g ai/ha: Amicarbazone 250, Sulfentrazone 150, Diuron 250, mix 250 + 150 + 250",13.8%
same,% Control,"Eleusine indica; Table 8, Pre-Emergence, 14 DAA, dose g ai/ha: Amicarbazone 250, Sulfentrazone 150, Diuron 250, mix 250 + 150 + 250",68.8%
same,% Control,"Eleusine indica; Table 8, Pre-Emergence, 21 DAA, dose g ai/ha: Amicarbazone 250, Sulfentrazone 150, Diuron 250, mix 250 + 150 + 250",92.0%
same,% Control,"Eleusine indica; Table 8, Pre-Emergence, 28 DAA, dose g ai/ha: Amicarbazone 250, Sulfentrazone 150, Diuron 250, mix 250 + 150 + 250",87.0%
same,% Control,"Eleusine indica; Table 10, Post-Emergence, 14 DAA, dose g ai/ha: Amicarbazone 75, Mesotrione 38, Ametryn 250, mix AMC + AME + MST 75 + 38 + 250",0.0%
same,% Control,"Eleusine indica; Table 10, Post-Emergence, 21 DAA, dose g ai/ha: Amicarbazone 75, Mesotrione 38, Ametryn 250, mix AMC + AME + MST 75 + 38 + 250",0.0%
same,% Control,"Eleusine indica; Table 10, Post-Emergence, 28 DAA, dose g ai/ha: Amicarbazone 75, Mesotrione 38, Ametryn 250, mix AMC + AME + MST 75 + 38 + 250",0.0%
same,% Control,"Eleusine indica; Table 10, Pre-Emergence, 14 DAA, dose g ai/ha: Amicarbazone 75, Mesotrione 38, Ametryn 250, mix AMC + AME + MST 75 + 38 + 250",0.0%
same,% Control,"Eleusine indica; Table 10, Pre-Emergence, 21 DAA, dose g ai/ha: Amicarbazone 75, Mesotrione 38, Ametryn 250, mix AMC + AME + MST 75 + 38 + 250",0.0%
same,% Control,"Eleusine indica; Table 10, Pre-Emergence, 28 DAA, dose g ai/ha: Amicarbazone 75, Mesotrione 38, Ametryn 250, mix AMC + AME + MST 75 + 38 + 250",0.0%
same,% Control,"[3]; Table 3, 14 DAA, dose g ai/ha: Amicarbazone 75, Isoxaflutole 15, Atrazine 250, mix 75 + 15 + 250",11.3%
same,% Control,"[3]; Table 3, 21 DAA, dose g ai/ha: Amicarbazone 75, Isoxaflutole 15, Atrazine 250, mix 75 + 15 + 250",0.0%
same,% Control,"[3]; Table 3, 28 DAA, dose g ai/ha: Amicarbazone 75, Isoxaflutole 15, Atrazine 250, mix 75 + 15 + 250",0.0%
same,% Control,"[3]; Table 4, 7 DAA, dose g ai/ha: Amicarbazone 250, Clomazone 250, Diuron 250, mix 250 + 250 + 250",18.8%
same,% Control,"[3]; Table 4, 14 DAA, dose g ai/ha: Amicarbazone 250, Clomazone 250, Diuron 250, mix 250 + 250 + 250",73.8%
same,% Control,"[3]; Table 4, 28 DAA, dose g ai/ha: Amicarbazone 250, Clomazone 250, Diuron 250, mix 250 + 250 + 250",86.5%
same,% Control,"Commelina benghalensis; Table 11, 21 DAA",8.8%
same,% Control,"Commelina benghalensis; Table 11, 28 DAA",7.3%
same,% Control,"Commelina benghalensis; Table 11, 35 DAA",6.8%
same,% Control,"Euphorbia heterophylla; Table 7, 7 DAA",3.8%
same,% Control,"Euphorbia heterophylla; Table 7, 14 DAA",28.8%
same,% Control,"Euphorbia heterophylla; Table 7, 21 DAA",56.3%
